The test system of one experiment is NCI 60 cell lines. In words: NCI 60 tumor cell line panel (SRB). Type of experiment: cell-based, human. Particulars: concentration of 10 μM, 48 h, FIG. 3. The procedure: Compound I-43b has been tested in the NCI 60 cell line panel. This screen utilizes 60 different human tumor cell lines, representing leukemia, melanoma, lung cancer, colon cancer, CNS cancer, ovarian cancer, breast cancer, prostate cancer and renal cancer.
The 60 human tumor cell lines of the cancer screening panel are grown in RPMI 1640 medium containing 5% fetal bovine serum and 2 mM L-glutamine. For a typical screening experiment, cells are inoculated into 96 well microtiter plates in 100 μL at plating densities ranging from 5,000 to 40,000 cells/well depending on the doubling time of individual cell lines. […]
Following drug addition, the plates are incubated for an additional 48 h at 37° C., 5% CO2, 95% air, and 100% relative humidity. […] Bound stain is subsequently solubilized with 10 mM trizma base, and the absorbance is read on an automated plate reader at a wavelength of 515 nm. […] Using the seven absorbance measurements [time zero (Tz), control growth (C), and test growth in the presence of drug at the five concentration levels (Ti)], the percentage growth is calculated at each of the drug concentrations levels. Percentage growth inhibition is calculated as: [(Ti−Tz)/(C−Tz)]×100 for concentrations for which Ti>/=Tz [(Ti−Tz)/Tz]×100 for concentrations for which Ti<Tz.
Three dose response parameters are calculated for each experimental agent. […]

The test system of experiment [1] is 3 human cancer cell lines established from Head & Neck (HNSCC). In words: MTT cell proliferation assay on HNSCC cell lines. It is filed as cell-based. As to conditions: MTT assay after 72 hours of treatment, FIG. 2. As to the method:
(§1) Compound I-43b has been tested in 3 human cancer cell lines established from Head & Neck (HNSCC) and in 4 human cancer cell lines established hepatocarcinoma (HCC). […] Cell proliferation has been evaluated using the MTT assay after 72 hours of treatment.
Background: Tetrazolium assays rely on reduction of a dye to a coloured formazan, in cell work by metabolically active cells.

Experiment [2] deals with 4 human cancer cell lines established hepatocarcinoma (HCC). Nature of the experiment: MTT cell proliferation assay on HCC cell lines. It is filed as cell-based. As to conditions: MTT assay after 72 hours of treatment, FIG. 2. As to the method:
as §1

Consider 1 compound from patent publication US9877962B2, “Piperazinyl derivatives for the treatment of cancer” (priority 2011, dated 2018).

Take `Cc1cc(Oc2ccccc2)ccc1N(C(=O)CCl)[C@H](C(=O)N1CCN[C@@H](C)C1)c1cccs1` (single isomer, unassigned) [Example I-43b]: in the experiment with NCI 60 cell lines, the “growth inhibition of NCI 60 tumor cell lines, single dose screen” value is listed as “selective growth inhibition on all these tumor cell lines”. Besides, the “cell proliferation inhibition, HNSCC cell lines” value in experiment [1] was “inhibited cell proliferation in a concentration dependent manner”. Further, in experiment [2], the “cell proliferation inhibition, HCC cell lines” value was “inhibited cell proliferation in a concentration dependent manner”.
